Results on 29 compounds are retold here after US7902252B2, “Inhibitors of D-amino acid oxidase” (Sepracor, Inc., priority 2007, dated 2011).

Sequence of Human DAAO (P14920 whole entry): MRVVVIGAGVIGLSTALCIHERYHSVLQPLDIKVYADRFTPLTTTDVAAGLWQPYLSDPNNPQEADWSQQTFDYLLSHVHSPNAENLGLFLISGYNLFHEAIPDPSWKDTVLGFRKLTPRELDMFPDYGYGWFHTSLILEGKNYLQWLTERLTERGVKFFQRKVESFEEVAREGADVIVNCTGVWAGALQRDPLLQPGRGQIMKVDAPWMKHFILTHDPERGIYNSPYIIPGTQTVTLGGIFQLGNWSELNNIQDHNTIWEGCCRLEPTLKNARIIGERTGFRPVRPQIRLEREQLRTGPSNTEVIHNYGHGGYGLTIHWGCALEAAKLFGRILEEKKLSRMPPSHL

In this test the target is Human DAAO (Homo sapiens, UniProt P14920). Description: D-Amino Acid Oxidase enzyme assay (D-serine, horseradish peroxidase/Amplex Red coupled fluorescence). It counts as biochemical. Particulars: D-serine 5 mM, pH 7.4. The method, then:
DAAO enzyme activity was measured using the substrate D-serine at its Michaelis-Menton Km of 5 mM. The rate of oxidation is measured as a rate of production of hydrogen peroxide, which was detected using the enzyme horseradish peroxidase (Sigma cat. No. P-8375). This coupled reaction uses the enzyme substrate Amplex Red (Molecular Probes), which is converted to the fluorescent reaction product, resorufin (excitation 530-560 nm; emission ˜590 nm). Although DAAO has a higher pH optimum, all reagents were prepared in 50 mM sodium phosphate buffer at pH 7.4 and inhibition curves were generated at this pH.
The final concentrations of components in 200 μl total volume per well (black clear-bottom 96-well plate, Costar) were:
(a) Horseradish peroxidase: 4 Units per mL
(d) Amplex Red reagent: 50 uM
The reactions were initiated by addition of DAAO enzyme and the fluorescence was monitored. H2O2 was added at 16 uM final concentration to a control well on each plate to test for compound interference with a coupled enzyme. Inhibition curves were generated in the presence of varying concentrations of the inhibitor and IC50 values were calculated for each inhibitor.
In the case of `O=C(O)c1cc2c([nH]1)CCC2Cc1ccc(F)cc1F` (single isomer, unassigned) [Compound 46, 4-(2,4-difluorobenzyl)-1,4,5,6-tetrahydrocyclopenta[b]pyrrole-2-carboxylic acid], the IC50 is at most 100 µM.
In the case of `Cc1cc(F)ccc1CC1CCc2[nH]c(C(=O)O)cc21` (single isomer, unassigned) [Compound 52, 4-(4-fluoro-2-methylbenzyl)-1,4,5,6-tetrahydrocyclopenta[b]pyrrole-2-carboxylic acid] it was at most 100 µM; in that of `O=C(O)c1cc2c([nH]1)CCC2Cc1ccc(Cl)c(Cl)c1` (single isomer, unassigned) [Compound 58, 4-(3,4-dichlorobenzyl)-1,4,5,6-tetrahydrocyclopenta[b]pyrrole-2-carboxylic acid], at most 100 µM; in that of `O=C(O)c1cc2c([nH]1)CCC2Cc1ccc(Br)cc1` (single isomer, unassigned) [Compound 61, 4-(4-bromobenzyl)-1,4,5,6-tetrahydrocyclopenta[b]pyrrole-2-carboxylic acid], at most 100 µM.
In the case of `COc1cccc(CC2CCc3[nH]c(C(=O)O)cc32)c1` (single isomer, unassigned) [Compound 67, 4-(3-methoxybenzyl)-1,4,5,6-tetrahydrocyclopenta[b]pyrrole-2-carboxylic acid] it was at most 100 µM; in that of `O=C(O)c1cc2c([nH]1)CCC2Cc1ccc2ccccc2c1` (single isomer, unassigned) [Compound 79, 4-(naphthalen-2-ylmethyl)-1,4,5,6-tetrahydrocyclopenta[b]pyrrole-2-carboxylic acid], at most 1 µM.
In the case of `O=C(O)c1cc2c([nH]1)CCC2Cc1cccc(-c2ccco2)c1` (single isomer, unassigned) [Compound 88, 4-(3-(furan-2-yl)benzyl)-1,4,5,6-tetrahydrocyclopenta[b]pyrrole-2-carboxylic acid] it was at most 100 µM; in that of `O=C(O)c1cc2c([nH]1)CCC2Cc1cccc(-c2ccc[nH]2)c1` (single isomer, unassigned) [Compound 92, 4-(3-(1H-pyrrol-2-yl)benzyl)-1,4,5,6-tetrahydrocyclopenta[b]pyrrole-2-carboxylic acid], at most 100 µM.
`O=C(O)c1cc2c([nH]1)CCC2c1cccc(F)c1` (single isomer, unassigned) [Compound 95, 4-(3-fluorophenyl)-1,4,5,6-tetrahydrocyclopenta[b]pyrrole-2-carboxylic acid] displayed a half-inhibitory concentration (IC50) of at most 100 µM.
In the case of `O=C(O)c1cc2c([nH]1)CCC2c1cc(F)cc(F)c1` (single isomer, unassigned) [Compound 99, 4-(3,5-difluorophenyl)-1,4,5,6-tetrahydrocyclopenta[b]pyrrole-2-carboxylic acid] it was at most 100 µM; in that of `O=C(O)c1cc2c([nH]1)C(c1ccc(-c3ccccc3)cc1)CC2` (single isomer, unassigned) [Compound 119, 6-(biphenyl-4-yl)-1,4,5,6-tetrahydrocyclopenta[b]pyrrole-2-carboxylic acid], at most 1 µM.
In the case of `O=C(O)c1cc2c([nH]1)C(c1ccc(-c3ccccc3)cc1)CC2` (single isomer, unassigned) [Compound 120, 6-(biphenyl-4-yl)-1,4,5,6-tetrahydrocyclopenta[b]pyrrole-2-carboxylic acid] it was above 100 µM; in that of `O=C(O)c1cc2c([nH]1)C(Cc1cccc(Cl)c1)CC2` (single isomer, unassigned) [Compound 122, 6-(3-chlorobenzyl)-1,4,5,6-tetrahydrocyclopenta[b]pyrrole-2-carboxylic acid], at most 1 µM.
In the case of `O=C(O)c1cc2c([nH]1)C(Cc1cccc(Br)c1)CC2` (single isomer, unassigned) [Compound 126, 6-(3-bromobenzyl)-1,4,5,6-tetrahydrocyclopenta[b]pyrrole-2-carboxylic acid] it was at most 100 µM; in that of `O=C(O)c1cc2c([nH]1)C(Cc1cccc(Br)c1)CC2` (single isomer, unassigned) [Compound 127, 6-(3-bromobenzyl)-1,4,5,6-tetrahydrocyclopenta[b]pyrrole-2-carboxylic acid], at most 0.1 µM; in that of `COc1cccc(CC2CCc3cc(C(=O)O)[nH]c32)c1` (single isomer, unassigned) [Compound 130, 6-(3-methoxybenzyl)-1,4,5,6-tetrahydrocyclopenta[b]pyrrole-2-carboxylic acid], at most 100 µM.
With `O=C(O)c1cc2c([nH]1)C(CCCc1ccccc1)CC2` (single isomer, unassigned) [Compound 135, 6-(3-phenylpropyl)-1,4,5,6-tetrahydrocyclopenta[b]pyrrole-2-carboxylic acid], the IC50 is at most 100 µM.
In the case of `O=C(O)c1cc2c([nH]1)C(CCCc1ccccc1)CC2` (single isomer, unassigned) [Compound 136, 6-(3-phenylpropyl)-1,4,5,6-tetrahydrocyclopenta[b]pyrrole-2-carboxylic acid] it was at most 1 µM.
In turn, `O=C(O)c1cc2c([nH]1)CC1CC21` (single isomer, unassigned) [Compound 139, 1a,4,5,5a-tetrahydro-1H-4-aza-cyclopropa[α]pentalene-3-carboxylic acid] registered a 50% inhibitory concentration (IC50) of at most 1 µM.
In the case of `O=C(O)c1cc2c([nH]1)CCC2=O` [Compound 2, 4-oxo-1,4,5,6-tetrahydrocyclopenta[b]pyrrole-2-carboxylic acid] it was at most 100 µM; in that of `CC(C)(C)c1c(C(=O)O)[nH]c2c1C(=O)CC2` [Compound 3, 3-tert-butyl-4-oxo-1,4,5,6-tetrahydrocyclopenta[b]pyrrole-2-carboxylic acid], above 100 µM.
In the case of `CC(C)C1CCc2[nH]c(C(=O)O)cc21` (centres unmarked) [Compound 10, 4-isopropyl-1,4,5,6-tetrahydrocyclopenta[b]pyrrole-2-carboxylic acid] it was at most 1 µM; in that of `CC(C)CC1CCc2[nH]c(C(=O)O)cc21` (centres unmarked) [Compound 11, 4-isobutyl-1,4,5,6-tetrahydrocyclopenta[b]pyrrole-2-carboxylic acid], at most 1 µM; in that of `O=C(O)c1cc2c([nH]1)CCC2CC1CCCCC1` (centres unmarked) [Compound 12, 4-(cyclohexylmethyl)-1,4,5,6-tetrahydrocyclopenta[b]pyrrole-2-carboxylic acid], at most 1 µM.
As for `O=C(O)c1cc2c([nH]1)CC/C2=C\c1ccc(F)cc1` [Compound 13, (E)-4-(4-fluorobenzylidene)-1,4,5,6-tetrahydrocyclopenta[b]pyrrole-2-carboxylic acid], the IC50 is at most 100 µM.
In turn, `O=C(O)c1cc2c([nH]1)CCC2Cc1ccccc1` (centres unmarked) [Compound 17, 4-benzyl-1,4,5,6-tetrahydrocyclopenta[b]pyrrole-2-carboxylic acid] showed an IC50 of at most 0.1 µM.
In the case of `O=C(O)c1cc2c([nH]1)CC(F)(F)C2` [Compound 21, 5,5-difluoro-1,4,5,6-tetrahydrocyclopenta[b]pyrrole-2-carboxylic acid] it was at most 1 µM; in that of `CC1Cc2cc(C(=O)O)[nH]c2C1` (centres unmarked) [Compound 22, 5-methyl-1,4,5,6-tetrahydrocyclopenta[b]pyrrole-2-carboxylic acid], at most 1 µM; in that of `O=C(O)c1cc2c([nH]1)CC(Cc1ccccc1)C2` (centres unmarked) [Compound 23, 5-benzyl-1,4,5,6-tetrahydrocyclopenta[b]pyrrole-2-carboxylic acid], at most 100 µM.

By IC50 is commonly meant the point on the concentration scale where inhibition reaches its midpoint. A low value points to inhibition by little substance.
